Data: US8614206B2 (Genentech, Inc., priority 2011, dated 2013)

The compounds below were run against PIM1 (Homo sapiens (Human), UniProt P11309) (assay: Pim kinase inhibition, PIM1 LC3K (Example 901)).
Type: biochemical
Text: Determination of the Pim kinase activity of a Formula I compound is possible by a number of direct and indirect detection methods.

PIM1, sequence (P11309 whole entry): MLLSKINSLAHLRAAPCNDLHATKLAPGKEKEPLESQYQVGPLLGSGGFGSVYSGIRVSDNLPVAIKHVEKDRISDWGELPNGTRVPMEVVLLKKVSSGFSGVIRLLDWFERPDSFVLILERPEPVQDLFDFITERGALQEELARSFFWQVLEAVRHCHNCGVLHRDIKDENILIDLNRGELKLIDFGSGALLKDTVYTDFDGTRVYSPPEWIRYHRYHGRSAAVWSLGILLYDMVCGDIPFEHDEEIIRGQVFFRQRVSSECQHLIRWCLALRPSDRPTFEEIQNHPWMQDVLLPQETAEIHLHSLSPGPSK

Row | Structure (SMILES) | Ki
1 | Cn1ncc(NC(=O)c2nc(-c3ccccc3F)ccc2N)c1N1CCC(N)CC(F)(F)C1 (racemic) [Example 292, 3-amino-N-(5-(5-amino-3,3-difluoroazepan-1-yl)-1-methyl-1H-pyrazol-4-yl)-6-(2-fluorophenyl)picolinamide] | 0.021 nM
2 | Cn1ncc(NC(=O)c2nc(-c3ccccc3F)cnc2N)c1N1CCC(N)C(F)CC1 (single isomer, unassigned) [Example 244, 3-amino-N-(5-(4-amino-5-fluoroazepan-1-yl)-1-methyl-1H-pyrazol-4-yl)-6-(2-fluorophenyl)pyrazine-2-carboxamide] | 0.141 nM
3 | Cn1ncc(NC(=O)c2nc(-c3ccccc3F)ccc2N)c1N1CCC(N)C(F)CC1 (single isomer, unassigned) [Example 245, 3-amino-N-(5-(4-amino-5-fluoroazepan-1-yl)-1-methyl-1H-pyrazol-4-yl)-6-(2-fluorophenyl)picolinamide] | 0.173 nM
4 | Cn1ncc(NC(=O)c2nc(-c3ccccc3F)cnc2N)c1N1CC[C@@H](N)CC(F)(F)C1 (single isomer, unassigned) [Example 248] | 0.007 nM
5 | Nc1sc(-c2c(F)cccc2F)nc1C(=O)Nc1cnn(CC(F)F)c1N1CC[C@H](N)CC(F)(F)C1 (single isomer, unassigned) [Example 280] | 0.01 nM
6 | Nc1sc(-c2c(F)cccc2F)nc1C(=O)Nc1cnn(C2CC2)c1N1CCC(N)C(F)CC1 (single isomer, unassigned) [Example 332, 5-amino-N-[5-(4-amino-5-fluoro-azepan-1-yl)-1-cyclopropyl-pyrazol-4-yl]-2-(2,6-difluorophenyl)thiazole-4-carboxamide] | 0.148 nM
7 | CCn1ncc(NC(=O)c2nc(-c3c(F)cccc3F)sc2N)c1N1CCC(N)C(F)CC1 (single isomer, unassigned) [Example 369, 5-amino-N-[5-(4-amino-5-fluoro-azepan-1-yl)-1-ethyl-pyrazol-4-yl]-2-(2,6-difluorophenyl)thiazole-4-carboxamide] | 0.178 nM
8 | CCn1ncc(NC(=O)c2nc(-c3ccccc3F)sc2N)c1N1CCC(N)C(F)CC1 (single isomer, unassigned) [Example 373, 5-amino-N-[5-(4-amino-5-fluoro-azepan-1-yl)-1-ethyl-pyrazol-4-yl]-2-(2-fluorophenyl)thiazole-4-carboxamide] | 0.373 nM
9 | CCn1ncc(NC(=O)c2nc(-c3ccccc3F)sc2N)c1N1CCC(N)C(F)CC1 (single isomer, unassigned) [Example 374, 5-amino-N-[5-(4-amino-5-fluoro-azepan-1-yl)-1-ethyl-pyrazol-4-yl]-2-(2-fluorophenyl)thiazole-4-carboxamide] | 0.346 nM
10 | CCn1ncc(NC(=O)c2nc(-c3c(F)cccc3F)sc2N)c1N1CCC(N)C(OC)CC1 (single isomer, unassigned) [Example 389, 5-amino-N-[5-(4-amino-5-methoxy-azepan-1-yl)-1-ethyl-pyrazol-4-yl]-2-(2,6-difluorophenyl)thiazole-4-carboxamide] | 0.624 nM
11 | COC1CCN(c2c(NC(=O)c3nc(-c4c(F)cccc4F)sc3N)cnn2C2CC2)CCC1N (single isomer, unassigned) [Example 401, 5-amino-N-[5-(4-amino-5-methoxy-azepan-1-yl)-1-cyclopropyl-pyrazol-4-yl]-2-(2,6-difluorophenyl)thiazole-4-carboxamide] | 0.059 nM
12 | COC1CCN(c2c(NC(=O)c3nc(-c4c(F)cccc4F)sc3N)cnn2C2CC2)CCC1N (single isomer, unassigned) [Example 403, 5-amino-N-[5-(4-amino-5-methoxy-azepan-1-yl)-1-cyclopropyl-pyrazol-4-yl]-2-(2,6-difluorophenyl)thiazole-4-carboxamide] | 0.21 nM
13 | Cn1ncc(NC(=O)c2nc(-c3ccccc3F)sc2N)c1N1CCNC[C@]2(CCO2)C1 (single isomer, unassigned) [Example 481] | 0.496 nM
14 | Cn1ncc(NC(=O)c2nc(-c3c(F)cccc3F)sc2N)c1N1CCC(N)C2(CCO2)CC1 (single isomer, unassigned) [Example 497, 5-amino-N-[5-(5-amino-1-oxa-8-azaspiro[3.6]decan-8-yl)-1-methyl-pyrazol-4-yl]-2-(2,6-difluorophenyl)thiazole-4-carboxamide] | 0.268 nM
15 | Cn1ncc(NC(=O)c2nc(-c3c(F)cccc3F)sc2N)c1N1CCC(N)C2(CCO2)CC1 (single isomer, unassigned) [Example 498, 5-amino-N-[5-(5-amino-1-oxa-8-azaspiro[3.6]decan-8-yl)-1-methyl-pyrazol-4-yl]-2-(2,6-difluorophenyl)thiazole-4-carboxamide] | 0.038 nM
16 | Cn1ncc(NC(=O)c2nc(-c3c(F)cccc3F)sc2N)c1N1CCC(N)C2(CCO2)CC1 (single isomer, unassigned) [Example 501, 5-amino-N-[5-(5-amino-1-oxa-8-azaspiro[3.6]decan-8-yl)-1-methyl-pyrazol-4-yl]-2-(2,6-difluorophenyl)thiazole-4-carboxamide] | 0.025 nM
17 | Nc1sc(-c2c(F)cccc2F)nc1C(=O)Nc1cnn(CC(F)F)c1N1CCCC[C@@H](N)C1 [Example 104, (R)-5-amino-N-(5-(3-aminoazepan-1-yl)-1-(2,2-difluoroethyl)-1H-pyrazol-4-yl)-2-(2,6-difluorophenyl)thiazole-4-carboxamide] | 0.091 nM
18 | Cc1ccc(F)c(-c2nc(C(=O)Nc3cnn(C)c3N3CCNCC(F)(F)C3)c(N)s2)c1 [Example 105, 5-Amino-N-(5-(6,6-difluoro-1,4-diazepan-1-yl)-1-methyl-1H-pyrazol-4-yl)-2-(2-fluoro-5-methylphenyl)thiazole-4-carboxamide] | 0.019 nM
19 | Nc1sc(-c2c(F)cccc2F)nc1C(=O)Nc1cnn(CC(F)F)c1N1CCCC(O)CC1 (centres unmarked) [Example 110, 5-Amino-N-(1-(2,2-difluoroethyl)-5-(4-hydroxyazepan-1-yl)-1H-pyrazol-4-yl)-2-(2,6-difluorophenyl)thiazole-4-carboxamide] | 0.166 nM
20 | Nc1sc(-c2c(F)cccc2F)nc1C(=O)Nc1cnn(CC2COC2)c1N1CCNCC1 [Example 251, 5-Amino-2-(2,6-difluoro-phenyl)-thiazole-4-carboxylic acid (1-oxetan-3-ylmethyl-5-piperazin-1-yl-1H-pyrazol-4-yl)-amide] | > 667 nM

Results, then the compound that gave them:

Row | Ki | Structure (SMILES)
21 | 0.023 nM | Cn1ncc(NC(=O)c2nc(-c3ccccc3F)cnc2N)c1N1CCC(N)CC(F)(F)C1 (racemic) [Example 293, 3-amino-N-(5-(5-amino-3,3-difluoroazepan-1-yl)-1-methyl-1H-pyrazol-4-yl)-6-(2-fluorophenyl)pyrazine-2-carboxamide]
22 | 0.188 nM | Cn1ncc(NC(=O)c2nc(-c3ccccc3F)sc2N)c1N1CCNCC2(CCO2)C1 (racemic) [Example 477, 5-amino-2-(2-fluorophenyl)-N-[1-methyl-5-(1-oxa-6,9-diazaspiro[3.6]decan-6-yl)pyrazol-4-yl]thiazole-4-carboxamide]
23 | 0.123 nM | Cn1ncc(NC(=O)c2nc(-c3ccccc3F)cnc2N)c1N1CCC(N)C(F)CC1 (single isomer, unassigned) [Example 243, 3-amino-N-(5-(4-amino-5-fluoroazepan-1-yl)-1-methyl-1H-pyrazol-4-yl)-6-(2-fluorophenyl)pyrazine-2-carboxamide]
24 | 0.149 nM | Cn1ncc(NC(=O)c2nc(-c3ccccc3F)ccc2N)c1N1CCC(N)C(F)CC1 (single isomer, unassigned) [Example 246, 3-amino-N-(5-(4-amino-5-fluoroazepan-1-yl)-1-methyl-1H-pyrazol-4-yl)-6-(2-fluorophenyl)picolinamide]
25 | 0.126 nM | COC1CCN(c2c(NC(=O)c3nc(-c4c(F)cccc4F)sc3N)cnn2C2CC2)CCC1N (single isomer, unassigned) [Example 402, 5-amino-N-[5-(4-amino-5-methoxy-azepan-1-yl)-1-cyclopropyl-pyrazol-4-yl]-2-(2,6-difluorophenyl)thiazole-4-carboxamide]
26 | 0.036 nM | COC1CCN(c2c(NC(=O)c3nc(-c4c(F)cccc4F)sc3N)cnn2C2CC2)CCC1N (single isomer, unassigned) [Example 404, 5-amino-N-[5-(4-amino-5-methoxy-azepan-1-yl)-1-cyclopropyl-pyrazol-4-yl]-2-(2,6-difluorophenyl)thiazole-4-carboxamide]
27 | 0.02 nM | Cn1ncc(NC(=O)c2nc(-c3ccccc3F)ccc2N)c1N1CC[C@H](N)CC(F)(F)C1 (stereo in doubt) [Example 249, 3-amino-N-(5-(5-amino-3,3-difluoroazepan-1-yl)-1-methyl-1H-pyrazol-4-yl)-6-(2-fluorophenyl)picolinamide]
28 | 0.079 nM | Cc1ccc(F)c(-c2nc(C(=O)Nc3cnn(CC(F)F)c3N3CCCC(O)CC3)c(N)s2)c1 (centres unmarked) [Example 111, 5-Amino-N-(1-(2,2-difluoroethyl)-5-(4-hydroxyazepan-1-yl)-1H-pyrazol-4-yl)-2-(2-fluoro-5-methylphenyl)thiazole-4-carboxamide]
29 | 0.292 nM | Nc1sc(-c2cc(F)ccc2F)nc1C(=O)Nc1cnn(CC(F)F)c1N1CCCC(O)CC1 (centres unmarked) [Example 118, 5-Amino-N-(1-(2,2-difluoroethyl)-5-(4-hydroxyazepan-1-yl)-1H-pyrazol-4-yl)-2-(2,5-difluorophenyl)thiazole-4-carboxamide]
30 | 0.01 nM | Cn1ncc(NC(=O)c2nc(-c3ccccc3F)cnc2N)c1N1CC[C@H](N)CC(F)(F)C1 [Example 247, (S)-3-amino-N-(5-(5-amino-3,3-difluoroazepan-1-yl)-1-methyl-1H-pyrazol-4-yl)-6-(2-fluorophenyl)pyrazine-2-carboxamide]
31 | 0.03 nM | Cn1ncc(NC(=O)c2nc(-c3ccccc3F)ccc2N)c1N1CC[C@@H](N)CC(F)(F)C1 [Example 250, (R)-3-amino-N-(5-(5-amino-3,3-difluoroazepan-1-yl)-1-methyl-1H-pyrazol-4-yl)-6-(2-fluorophenyl)picolinamide]
32 | 0.009 nM | Cn1ncc(NC(=O)c2nc(-c3c(F)cccc3F)sc2N)c1N1CCC(N)CC(C)(F)C1 (centres unmarked) [Example 256, 5-Amino-2-(2,6-difluoro-phenyl)-thiazole-4-carboxylic acid [5-(5-amino-3-fluoro-3-methyl-azepan-1-yl)-1-methyl-1H-pyrazol-4-yl]-amide]
